Results taken from patent US20240033349A1, “VACCINE AND METHOD OF PROTECTION AGAINST CORONAVIRUS INFECTION” (priority 2020, published 2024).

How the values were obtained:
SARS-Cov-2 = details: human, in vivo
[1] = system: MERS-CovN3/Jordanp3 virus; parameters: species or system mice; details: mouse, in vivo
[2] = system: new coronavirus infection COVID-19; details: human, in vivo
[3] = system: SARS-Cov virus (strain SARS-Covktp3); parameters: species or system mice; details: mouse, in vivo
[4] = clinical examples, unlike other phthalhydrazide derivatives
[5] = system: virus of Venezuelan equine encephalomyelitis, strain Trinidad; parameters: species or system mice; details: mouse, in vivo

Compound: Nc1cccc2c(=O)[nH][nH]c(=O)c12.[Na] [Tamerit, 5-amino-1,2,3,4-tetrahydrophthalazine-1,4-dione sodium salt]
- Control MSCT of the chest organs (SARS-Cov-2): pronounced positive dynamics
- Dynamics of clinical and laboratory data (SARS-Cov-2): rapid positive dynamics of clinical and laboratory data
- MSCT grade of lung lesion (SARS-Cov-2): CT-2.
- SARS-Cov-2 RNA test (SARS-Cov-2): not detected.
- ferritin (SARS-Cov-2): ferritin-973.3 ng/ml
- interleukin-6 (SARS-Cov-2): 924.6 pg/mL,
- Protection effect [1]: 50%
- Development of early pulmonary fibrosis by computed tomography [2]: not observed in any patient
- Indications for artificial lung ventilation [2]: none of the observed patients treated with Tamerit had indications for artificial lung ventilation
- Infection with COVID-19 after contact with the patients [2]: No one of them got infected
- Reduction of duration of clinical manifestations of the acute phase of the disease [2]: 1.5-2 weeks
- Time to complete regression of symptoms [2]: 3 to 4 days
- Protection effect [3]: 50%
- Toxic, cumulative, mutagenic or teratogenic effects [4]: no toxic, cumulative, mutagenic or teratogenic effects
- Survival rate higher than in animals immunized only with VVE [5]: 25-30%
- Survival rate of infected mice depending on the infecting dose [5]: 60-100%
